As a reminder, the EC50 is the concentration that produces a half-maximal response.

Data on 21 molecules can be found in patent US20240307382A1, “MODULATORS OF THE INTEGRATED STRESS PATHWAY” (Calico Life Sciences LLC, priority 2017, published 2024).

A value given as a limit tells only on which side of the number the result lay.

The test concerns HEK293T cells carrying the ATF4 luciferase reporter. Put plainly: ATF4-Luc assay (ATF4 luciferase reporter, tunicamycin-treated cells). It counts as cell-based. Conditions: Homo sapiens, HEK-293T, 1 μg/mL tunicamycin, 7 hours. The gist of the method: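 A stable HEK293T reporter line was made by placing the full-length human ATF4 5′-UTR ahead of a firefly luciferase sequence without its start methionine, delivered by retroviral transduction and puromycin selection. Cells were seeded at 30,000 per well in polylysine-coated 384-well plates, exposed next day to 1 μg/mL tunicamycin plus compound for 7 hours, and luminescence was read with One Glo.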
As for `CC(C)c1cc(C(=O)NC23CCC(NC(=O)COc4ccc(Cl)c(Cl)c4)(CC2)[C@@H](O)C3)on1` [Compound 1012, N-{(3S)-4-[2-(3,4-dichlorophenoxy)acetamido]-3-hydroxybicyclo[2.2.2]octan-1-yl}-3-(propan-2-yl)-1,2-oxazole-5-carboxamide], the EC50 is less than 50 nM.

Take `O=C(COc1ccc(Cl)c(Cl)c1)NC12CCC(NC(=O)c3cc(C4CC4)no3)(CC1)C[C@@H]2O` [Compound 1013, 3-cyclopropyl-N-{(3S)-4-[2-(3,4-dichlorophenoxy)acetamido]-3-hydroxybicyclo[2.2.2]octan-1-yl}-1,2-oxazole-5-carboxamide]: the EC50 was less than 50 nM.

As to `O=C(COc1ccc(Cl)c(Cl)c1)NC12CCC(NC(=O)c3ccc(N4CCCC4)cn3)(CC1)C[C@@H]2O` [Compound 1014, N-{(3S)-4-[2-(3,4-dichlorophenoxy)acetamido]-3-hydroxybicyclo[2.2.2]octan-1-yl}-5-(pyrrolidin-1-yl)pyridine-2-carboxamide], the EC50 is greater than 2000 nM.

As for `Cc1cc(C(=O)NC23CCC(NC(=O)COc4ccc(F)c(Cl)c4)(CC2)[C@@H](O)C3)on1` [Compound 1015, N-{(3S)-4-[2-(3-chloro-4-fluorophenoxy)acetamido]-3-hydroxybicyclo[2.2.2]octan-1-yl}-3-methyl-1,2-oxazole-5-carboxamide], the EC50 lay in the range of 50 to 250 nM.

With `Cc1cc(C(=O)NC23CCC(NC(=O)COc4ccc(Cl)cc4)(CC2)[C@@H](O)C3)on1` [Compound 1016, N-{(3S)-4-[2-(4-chlorophenoxy)acetamido]-3-hydroxybicyclo[2.2.2]octan-1-yl}-3-methyl-1,2-oxazole-5-carboxamide], the EC50 was 50 to 250 nM.

In the case of `O=C(COc1ccc(Cl)c(Cl)c1)NC12CCC(NC(=O)c3cc(C(F)(F)F)no3)(CC1)C[C@@H]2O` [Compound 1017, N-{(3S)-4-[2-(3,4-dichlorophenoxy)acetamido]-3-hydroxybicyclo[2.2.2]octan-1-yl}-3-(trifluoromethyl)-1,2-oxazole-5-carboxamide], the EC50 was less than 50 nM.

For the molecule `O=C(COc1ccc(Cl)c(F)c1)NC12CCC(NC(=O)c3cc(-c4ccccc4)no3)(CC1)C[C@@H]2O` [Compound 1018, N-{(3S)-4-[2-(4-chloro-3-fluorophenoxy)acetamido]-3-hydroxybicyclo[2.2.2]octan-1-yl}-3-phenyl-1,2-oxazole-5-carboxamide], the EC50 is less than 50 nM.

`CCc1c(C(=O)NC23CCC(NC(=O)COc4ccc(Cl)c(F)c4)(CC2)[C@@H](O)C3)nn(C)c1-c1ccccc1` [Compound 1019, N-{(3S)-4-[2-(4-chloro-3-fluorophenoxy)acetamido]-3-hydroxybicyclo[2.2.2]octan-1-yl}-4-ethyl-1-methyl-5-phenyl-1H-pyrazole-3-carboxamide]: the 50% effective concentration (EC50) was in the range of 1000 to 2000 nM.

Regarding `Cn1nc(-c2ccccc2)cc1C(=O)NC12CCC(NC(=O)COc3ccc(Cl)c(F)c3)(CC1)[C@@H](O)C2` [Compound 1020, N-{(3S)-4-[2-(4-chloro-3-fluorophenoxy)acetamido]-3-hydroxybicyclo[2.2.2]octan-1-yl}-1-methyl-3-phenyl-1H-pyrazole-5-carboxamide], the EC50 was less than 50 nM.

As to `Cc1oc(-c2ccccc2)cc1C(=O)NC12CCC(NC(=O)COc3ccc(Cl)c(F)c3)(CC1)[C@@H](O)C2` [Compound 1021, N-{(3S)-4-[2-(4-chloro-3-fluorophenoxy)acetamido]-3-hydroxybicyclo[2.2.2]octan-1-yl}-2-methyl-5-phenylfuran-3-carboxamide], the concentration giving a half-maximal response (EC50) is less than 50 nM.

With `O=C(COc1ccc(Cl)c(F)c1)NC12CCC(NC(=O)c3cc(-c4ccccc4)[nH]n3)(CC1)C[C@@H]2O` [Compound 1022, N-{(3S)-4-[2-(4-chloro-3-fluorophenoxy)acetamido]-3-hydroxybicyclo[2.2.2]octan-1-yl}-5-phenyl-1H-pyrazole-3-carboxamide], the EC50 was less than 50 nM.

As for `Cn1ncc2cc(C(=O)NC34CC(NC(=O)COc5ccc(Cl)c(F)c5)(C3)C4)ccc21` [Compound 1023, N-{3-[2-(4-chloro-3-fluorophenoxy)acetamido]bicyclo[1.1.1]pentan-1-yl}-1-methyl-1H-indazole-5-carboxamide], the EC50 was in the range of 250 to 1000 nM.

With `O=C(COc1ccc(Cl)c(Cl)c1)NC12CCC(NC(=O)c3ccc(OC(F)(F)F)cn3)(CC1)C[C@@H]2O` [Compound 1024, N-{(3S)-4-[2-(3,4-dichlorophenoxy)acetamido]-3-hydroxybicyclo[2.2.2]octan-1-yl}-5-(trifluoromethoxy)pyridine-2-carboxamide], the EC50 is less than 50 nM.

Turning to `O=C(COc1ccc(Cl)c(Cl)c1)NC12CCC(NC(=O)c3cccc(O)n3)(CC1)C[C@@H]2O` [Compound 1025, N-{(3S)-4-[2-(3,4-dichlorophenoxy)acetamido]-3-hydroxybicyclo[2.2.2]octan-1-yl}-6-hydroxypyridine-2-carboxamide], the EC50 is less than 50 nM.

Take `O=C(COc1ccc(Cl)c(Cl)c1)NC12CCC(NC(=O)c3ccccn3)(CC1)C[C@@H]2O` [Compound 1026, N-{(3S)-4-[2-(3,4-dichlorophenoxy)acetamido]-3-hydroxybicyclo[2.2.2]octan-1-yl}pyridine-2-carboxamide]: the EC50 is less than 50 nM.

Regarding `O=C(COc1ccc(Cl)c(Cl)c1)NC12CCC(NC(=O)c3cccc(C(F)(F)F)n3)(CC1)C[C@@H]2O` [Compound 1027, N-{(3S)-4-[2-(3,4-dichlorophenoxy)acetamido]-3-hydroxybicyclo[2.2.2]octan-1-yl}-6-(trifluoromethyl)pyridine-2-carboxamide], the EC50 is less than 50 nM.

For the molecule `CC(C)Oc1ccc(C(=O)NC23CCC(NC(=O)COc4ccc(Cl)c(Cl)c4)(CC2)[C@@H](O)C3)nc1` [Compound 1028, N-{(3S)-4-[2-(3,4-dichlorophenoxy)acetamido]-3-hydroxybicyclo[2.2.2]octan-1-yl}-5-[(propan-2-yl)oxy]pyridine-2-carboxamide], the EC50 was in the range of 50 to 250 nM.

Take `Cc1ccc(C(=O)NC23CCC(NC(=O)COc4ccc(Cl)c(Cl)c4)(CC2)[C@@H](O)C3)nc1` [Compound 1029, N-{(3S)-4-[2-(3,4-dichlorophenoxy)acetamido]-3-hydroxybicyclo[2.2.2]octan-1-yl}-5-methylpyridine-2-carboxamide]: the EC50 was less than 50 nM.

For `O=C(COc1ccc(Cl)c(Cl)c1)NC12CCC(NC(=O)c3cc(C(F)(F)F)ccn3)(CC1)C[C@@H]2O` [Compound 1030, N-{(3S)-4-[2-(3,4-dichlorophenoxy)acetamido]-3-hydroxybicyclo[2.2.2]octan-1-yl}-4-(trifluoromethyl)pyridine-2-carboxamide], the EC50 was 50 to 250 nM.

For `O=C(COc1ccc(Cl)c(Cl)c1)NC12CCC(NC(=O)c3ccc(C(F)(F)F)cn3)(CC1)C[C@@H]2O` [Compound 1031, N-{(3S)-4-[2-(3,4-dichlorophenoxy)acetamido]-3-hydroxybicyclo[2.2.2]octan-1-yl}-5-(trifluoromethyl)pyridine-2-carboxamide], the EC50 was less than 50 nM.

On to `N#Cc1ccnc(C(=O)NC23CCC(NC(=O)COc4ccc(Cl)c(Cl)c4)(CC2)[C@@H](O)C3)c1` [Compound 1032, 4-cyano-N-{(3S)-4-[2-(3,4-dichlorophenoxy)acetamido]-3-hydroxybicyclo[2.2.2]octan-1-yl}pyridine-2-carboxamide], for which the EC50 was less than 50 nM.
